US6887879B2, “Pharmaceutical combination of antiviral agents” (priority 1999, dated 2005)
Where two headings read alike, the source gives them in different places.

Tests used:
[1] = Cytotoxicity, [3H]-thymidine uptake, Molt-4; format: cell-based; details: human, Molt-4 cells
Method: (§1) The cellular toxicity of the BCH compounds were assessed on various cells using [^3H]-thymidine uptake. The various cells, including Molt-4, HT1080, DU-145, HepG 2 and HSF, were plated at a concentration of 1-2×10^3 cells per well (96 well plates). However, PHA-stimulated PBMCs were cultured at a concentration of 4×10^4. After a 24 hr incubation period, 10-fold serial diluted compounds (10^−4 M to 10^−10 M) were added to the culture medium and the cells were further incubated for 72 hrs. [^3H]-thymidine was added during the final 18 hr incubation period. After incubation with the [^3H]-thymidine, the cells were washed once with PBS, treated with trypsin it the cells were adherent, and then resuspended in water (hypotonic lysing of cells) The cellular extract was applied directly to a Tomtec Harvester 96. Using this instrument the extracted DNA is adsorbed onto filters, washed and the incorporated [^3H]-thymidine is then counted.

[2] = system: HIV-1 clinical isolate 4246; test: Antiviral assay, HIV-1 clinical isolate 4246, CBMCs; format: cell-based; details: Human immunodeficiency virus 1, read-out: EC50 in CBMCs
Method: (§2) HIV-1IIIB laboratory strain and HXB2-D recombinant of HIV-1 were kindly supplied by R. C. Gallo (Institute of Human Virology, Baltimore, Md.). […] The recombinant viruses were generated by transfection of proviral DNA into MT-4 cells with Lipofectamine using the protocol recommended by the manufacturer .(Gibco BRL, Montreal, Canada). […] Stock viruses were prepared from clarified culture supernatants by centrifugation and stored at −70° C. The viruses were titrated by limited dilution with a 4-fold serial dilution.
(§3) The population of HIV-1 in infected individual is quasispecies and the sensitivity of these different viruses found in clinical isolates to antiviral chemotherapy might be quite variable. In addition, HIV-1 isolates obtained from patients receiving long-term antiretroviral therapy might behave differently from cloned virus containing genetically engineered mutations in the RT gene. For these reasons, clinical isolates of HIV-1 from antiviral naive and drug-treated patients were assayed in PHA-stimulated CBMCs for their sensitivity to DXG and DAPD accompanied with approved antiretroviral agents. The genotype of the HIV-1 clinical isolates were determined as described above.

[3] = Cytotoxicity, [3H]-thymidine uptake, HepG2; format: cell-based; details: human, HepG2 cells
Method: as §1

HIV-1IIIB = test: Anti-HIV-1 antiviral assay, laboratory strain HIV-1IIIB, RT activity in culture supernatants
Method: Most experiments were performed with a laboratory strain HIV-1III. […] The cells were incubated with virus using the indicated multiplicity of infection (MOI) for 2-3 hrs. The MOI used for each experiment was dependent upon the cell line and virus strain used, and was generally in the range of 0.005 to 0.5. For example, in assays performed using the established cell line MT-2, HIV-1IIIB at an MOI of 0.005 was used to infect cells. The unbound virus was then removed by washing the cells, followed by plating the cells into a 96-well plate. The infected cells were cultured in the presence of a serial concentrations of the test compound for 5-7 days. The anti-HIV-1 efficacy was determined by testing for HIV-1 RT activity in the cell culture supernatants. All assays were performed in duplicate and at least two independent experiments were performed. […] The susceptibilities of the HIV-1 variants to antiretroviral agents are expressed as the mean of the EC50 determinations.

[4] = Cytotoxicity, [3H]-thymidine uptake, HSF; format: cell-based; details: human, human skin fibroblasts (HSF)
Method: as §1

[5] = system: HIV-1 clinical isolate 4877; test: microbe, parasite or virus in culture; format: cell-based; details: Human immunodeficiency virus 1, read-out: EC50 in CBMCs
Method: as §2, §3

[6] = system: HIV-1 clinical isolate 4205; test: microbe, parasite or virus in culture; format: cell-based; details: for EC50: Human immunodeficiency virus 1, read-out: EC50 in CBMCs; for decreased susceptibility compared to the lamivudine and AZT sensitive isolates: isolate 4205, 184V
Method: as §2, §3

[7] = system: HIV-1 clinical isolate 3887; test: microbe, parasite or virus in culture; format: cell-based; details: Human immunodeficiency virus 1, read-out: EC50 in CBMCs
Method: as §2, §3

[8] = system: HIV-1 clinical isolate 3350; test: microbe, parasite or virus in culture; format: cell-based; details: for EC50: Human immunodeficiency virus 1, read-out: EC50 in CBMCs; for decreased susceptibility compared to the lamivudine and AZT sensitive isolates: isolate 3350, 184V
Method: as §2, §3

[9] = system: HIV-1 clinical isolate 4833; test: microbe, parasite or virus in culture; format: cell-based; details: Human immunodeficiency virus 1, therapy Saquinavir (48 weeks), read-out: EC50 in CBMCs
Method: as §2, §3

[10] = system: HIV-1 clinical isolate 4924; test: microbe, parasite or virus in culture; format: cell-based; details: Human immunodeficiency virus 1, read-out: EC50 in CBMCs
Method: as §2, §3

[11] = system: HIV-1 clinical isolate 4242; test: microbe, parasite or virus in culture; format: cell-based; details: for sensitivity of isolate 4242, in words: 41L/70R/215Y in RT; for EC50: Human immunodeficiency virus 1, read-out: EC50 in CBMCs
Method: as §2, §3

recombinant HXB2-D WT = test: microbe, parasite or virus in culture; format: cell-based, HIV-1; details: Human immunodeficiency virus 1, HXB2, read-out: EC50 in CBMCs
Method: as §2

recombinant HXB2-D 74V = test: microbe, parasite or virus in culture; format: cell-based, HIV-1; details: Human immunodeficiency virus 1, HXB2, read-out: EC50 in CBMCs
Method: as §2

recombinant HXB2-D 184V = test: microbe, parasite or virus in culture; format: cell-based, HIV-1; details: Human immunodeficiency virus 1, HXB2, read-out: EC50 in CBMCs
Method: as §2

[12] = system: recombinant HXB2-D 41L/70R/215Y/219Q; test: microbe, parasite or virus in culture; format: cell-based, HIV-1; details: for sensitivity of AZT resistant virus, in words: 41L, 70R, 215Y and 219Q, CBMCs, also observed in MT-2 cells; for EC50: Human immunodeficiency virus 1, HXB2, read-out: EC50 in CBMCs
Method: as §2

[13] = system: recombinant HXB2-D 41L/215Y/184V; test: microbe, parasite or virus in culture; format: cell-based, HIV-1; details: for EC50: Human immunodeficiency virus 1, HXB2, read-out: EC50 in CBMCs
Method: as §2

[14] = system: recombinant HXB2-D 10R/46I/63P/82T/84V; test: microbe, parasite or virus in culture; format: cell-based, HIV-1; details: Human immunodeficiency virus 1, HXB2, read-out: EC50 in CBMCs
Method: as §2

recombinant HXB2-D 65R = test: microbe, parasite or virus in culture; format: cell-based, HIV-1; details: Human immunodeficiency virus 1, HXB2, read-out: EC50 in CBMCs
Method: as §2

[15] = Cytotoxicity, [3H]-thymidine uptake, PBMC; format: cell-based; details: human, PHA-stimulated PBMCs
Method: as §1

[16] = system: HIV-1 clinical isolate 4526; test: Antiviral assay, HIV-1 clinical isolate 4526, CBMCs; format: cell-based; details: Human immunodeficiency virus 1, naive
Method: as §2, §3

[17] = Cytotoxicity, [3H]-thymidine uptake, HT-1080; format: cell-based; details: human, HT-1080 cells
Method: as §1

[18] = Cytotoxicity, [3H]-thymidine uptake, DU145; format: cell-based; details: human, DU145 cells
Method: as §1

[19] = system: recombinant HXB2-D 106A/181C; test: microbe, parasite or virus in culture; format: cell-based, HIV-1; details: Human immunodeficiency virus 1, HXB2, read-out: EC50 in CBMCs
Method: as §2

[20] = system: CBMCs, MT-2, H9, Jurkat and U937; test: Cytotoxicity, WST-1 cell viability assay; format: cell-based, human; details: WST-1, MT-2, H9, Jurkat and U937
Method: The cellular toxicity of the compounds was also tested by WST-1 staining through assessing proliferation of MT-2, H9, Jurkat, U937, and CBMCs. The established cell lines were cultured in RPMI medium in 96-well plates at a density of 5×10^4 cells/well while CBMCs were plated at a concentration of 0.5×10^6/well. A 10-fold serial diluted (10^−4−10^−7 M) compound was added at day zero. At day 4, the cells were passaged by changing half medium containing appropriately diluted compound. The cell activities were assessed at day 7 using the WST-1 reagent (Boehringer Mannheim) following the protocol provided by the supplier.

[21] = Human immunodeficiency virus 1, H9, read-out: EC50, mean values ± SD
[22] = Human immunodeficiency virus 1, Jurkat, read-out: EC50, mean values ± SD
[23] = Human immunodeficiency virus 1, MT2, read-out: EC50, mean values ± SD
[24] = Human immunodeficiency virus 1, MT4, read-out: EC50, mean values ± SD
[25] = Human immunodeficiency virus 1, U-937
[26] = Human immunodeficiency virus 1, read-out: EC50, mean values ± SD

| SMILES | CC50 at 72 h [1] [nM] | EC50 [2] [nM] | CC50 at 72 h [3] [nM] | EC50 (HIV-1IIIB; [21]) [nM] | EC50 (HIV-1IIIB; [22]) [nM] | EC50 (HIV-1IIIB; [23]) [nM] | EC50 (HIV-1IIIB; [24]) [nM] | EC50 (HIV-1IIIB; [25]) [nM] | EC50 (HIV-1IIIB; [26]) [nM] | CC50 at 72 h [4] [nM] | EC50 [5] [nM] | EC50 [6] [nM] | decreased susceptibility compared to the lamivudine and AZT sensitive isolates [6] [fold] | EC50 [7] [nM] | EC50 [8] [nM] | decreased susceptibility compared to the lamivudine and AZT sensitive isolates [8] [fold] | EC50 [9] [nM] | EC50 [10] [nM] | sensitivity of isolate 4242, in words [11] | EC50 [11] [nM] | also measured |
| --- | --- | --- | --- | --- | --- | --- | --- | --- | --- | --- | --- | --- | --- | --- | --- | --- | --- | --- | --- | --- | --- |
| Nc1nc(N)c2ncn([C@H]3CO[C@@H](CO)O3)c2n1 [DAPD, (−)- -D-2,6-diaminopurine-1,3-dioxolane] | > 500000 | 410 ± 20 | > 500000 | 75 ± 40 | 1370 ± 720 | 540 | 940 ± 28 | 1300 | 970 | > 500000 | 260 | 4100 ± 350 | ~5 | 190 ± 120 | 3300 ± 1200 | ~5 | 630 ± 380 | 170 | remained sensitive | 880 ± 300 | EC50 fold higher than those for DXG (HIV-1IIIB; various cells): 5-20 fold; EC50 (recombinant HXB2-D WT): 1100 ± 160 nM; EC50 (recombinant HXB2-D 74V): 6600 ± 3400 nM; EC50 (recombinant HXB2-D 184V): 2100 ± 200 nM; sensitivity of AZT resistant virus, in words [12]: remained completely sensitive; EC50 [12]: 1250 ± 590 nM; EC50 [13]: 2300 ± 50 nM; EC50 [14]: 1370 ± 60 nM; EC50 (recombinant HXB2-D 65R): 6500 ± 2100 nM; CC50 at 72 h [15]: > 500000 nM; EC50 [16]: 850 ± 71 nM; CC50 at 72 h [17]: > 500000 nM; CC50 at 72 h [18]: > 500000 nM |
| Nc1nc2c(ncn2[C@H]2CO[C@@H](CO)O2)c(=O)[nH]1 [DXG, (−)-β-D-1,3-dioxolane guanine] | > 500000 | 120 ± 80 | > 500000 | 60 ± 50 | 340 ± 140 | 85 | 51 ± 9 | 410 | 46 | ≥ 500000 | 45 | 1100 ± 1190 | ~5 | 180 ± 7 | 650 ± 330 | ~5 | 170 ± 60 | 20 | remained sensitive | 210 ± 7 | anti-HIV-1 efficacy fold less than that of AZT (HIV-1IIIB; various cells): 5-10 fold; EC50 (recombinant HXB2-D WT): 210 ± 50 nM; EC50 (recombinant HXB2-D 74V): 1300 ± 800 nM; EC50 (recombinant HXB2-D 184V): 440 ± 70 nM; EC50 [19]: 50 ± 7 nM; sensitivity of AZT resistant virus, in words [12]: remained completely sensitive; EC50 [12]: 240 ± 20 nM; decreased sensitivity ([13]; 41L and 215Y combined with 184V): ~2 fold; EC50 [13]: 410 ± 100 nM; EC50 [14]: 120 ± 30 nM; EC50 (recombinant HXB2-D 65R): 1200 ± 200 nM; CC50 at 72 h [15]: > 500000 nM; no toxicity up to (highest concentration tested) [20]: ≥ 100 µM; EC50 [16]: 55 ± 27 nM; CC50 at 72 h [17]: > 500000 nM; CC50 at 72 h [18]: > 500000 nM |
